Results as given in the supplement of paper PMC10307832.

Tests used:
Experiment in all cases: relative viability (nuclei count vs DMSO), 5 days (fraction); higher = more cells survive
NCI-H2342 = test system: NCI-H2342
Method in brief: (§1)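 Relative viability is defined as nuclei in treated wells over nuclei in vehicle wells. Duplicate plates were run and medians reported. Lung cancer cell lines in 1536-well plates were dosed by pin tool one day after seeding, with one drug or with a fixed anchor-drug dose plus five library-drug doses (not always all listed) in √10 steps, and nuclei were counted after 5 days.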

NCI-H1975 = test system: NCI-H1975
Method in brief: as §1

NCI-H1650 = test system: NCI-H1650
Method in brief: as §1

BEN = test system: BEN
Method in brief: as §1

NCI-H1651 = test system: NCI-H1651
Method in brief: as §1

CAL-12T = test system: CAL-12T
Method in brief: as §1

LCLC-103H = test system: LCLC-103H
Method in brief: as §1

NCI-H1563 = test system: NCI-H1563
Method in brief: as §1

NCI-H2085 = test system: NCI-H2085
Method in brief: as §1

NCI-H1355 = test system: NCI-H1355
Method in brief: as §1

LOU-NH91 = test system: LOU-NH91
Method in brief: as §1

NCI-H838 = test system: NCI-H838
Method in brief: as §1

NCI-H358 = test system: NCI-H358
Method in brief: as §1

NCI-H2023 = test system: NCI-H2023
Method in brief: as §1

HCC-15 = test system: HCC-15
Method in brief: as §1

HCC-366 = test system: HCC-366
Method in brief: as §1

NCI-H441 = test system: NCI-H441
Method in brief: as §1

NCI-H460 = test system: NCI-H460
Method in brief: as §1

NCI-H1395 = test system: NCI-H1395
Method in brief: as §1

HCC-44 = test system: HCC-44
Method in brief: as §1

NCI-H1734 = test system: NCI-H1734
Method in brief: as §1

EKVX = test system: EKVX
Method in brief: as §1

NCI-H1755 = test system: NCI-H1755
Method in brief: as §1

NCI-H1437 = test system: NCI-H1437
Method in brief: as §1

## Clc1ccc(Nc2nnc(Cc3ccncc3)c3ccccc23)cc1 [Vatalanib] + COc1cccc2cc(-c3nc([C@H]4CC[C@H](C(=O)O)CC4)n4ncnc(N)c34)[nH]c12 [OSI-027] (partner 0.5 µM)
NCI-H2342; first compound 0.04 µM
  relative viability: 0.691
NCI-H2342; first compound 0.1265 µM
  relative viability: 0.556
NCI-H2342; first compound 0.4 µM
  relative viability: 0.616
NCI-H2342; first compound 1.265 µM
  relative viability: 0.592
NCI-H2342; first compound 4 µM
  relative viability: 0.601
NCI-H1975; first compound 0.04 µM
  relative viability: 0.778
NCI-H1975; first compound 0.1265 µM
  relative viability: 0.739
NCI-H1975; first compound 0.4 µM
  relative viability: 0.688
NCI-H1975; first compound 1.265 µM
  relative viability: 0.568
NCI-H1975; first compound 4 µM
  relative viability: 0.673
NCI-H1650; first compound 0.04 µM
  relative viability: 0.769
NCI-H1650; first compound 0.1265 µM
  relative viability: 0.454
NCI-H1650; first compound 0.4 µM
  relative viability: 0.438
NCI-H1650; first compound 1.265 µM
  relative viability: 0.633
NCI-H1650; first compound 4 µM
  relative viability: 0.514
BEN; first compound 0.04 µM
  relative viability: 0.297
BEN; first compound 0.1265 µM
  relative viability: 0.314
BEN; first compound 0.4 µM
  relative viability: 0.31
BEN; first compound 1.265 µM
  relative viability: 0.295
BEN; first compound 4 µM
  relative viability: 0.281
NCI-H1651; first compound 0.04 µM
  relative viability: 0.751
NCI-H1651; first compound 0.1265 µM
  relative viability: 0.723
NCI-H1651; first compound 0.4 µM
  relative viability: 0.662
NCI-H1651; first compound 1.265 µM
  relative viability: 0.644
NCI-H1651; first compound 4 µM
  relative viability: 0.615
CAL-12T; first compound 0.04 µM
  relative viability: 0.574
CAL-12T; first compound 0.1265 µM
  relative viability: 0.523
CAL-12T; first compound 0.4 µM
  relative viability: 0.583
CAL-12T; first compound 1.265 µM
  relative viability: 0.556
CAL-12T; first compound 4 µM
  relative viability: 0.581
LCLC-103H; first compound 0.04 µM
  relative viability: 0.496
LCLC-103H; first compound 0.1265 µM
  relative viability: 0.412
LCLC-103H; first compound 0.4 µM
  relative viability: 0.55
LCLC-103H; first compound 1.265 µM
  relative viability: 0.503
LCLC-103H; first compound 4 µM
  relative viability: 0.457
NCI-H1563; first compound 0.04 µM
  relative viability: 0.735
NCI-H1563; first compound 0.1265 µM
  relative viability: 0.677
NCI-H1563; first compound 0.4 µM
  relative viability: 0.827
NCI-H1563; first compound 1.265 µM
  relative viability: 0.698
NCI-H1563; first compound 4 µM
  relative viability: 0.738
NCI-H2085; first compound 0.04 µM
  relative viability: 0.685
NCI-H2085; first compound 0.1265 µM
  relative viability: 0.819
NCI-H2085; first compound 0.4 µM
  relative viability: 0.883
NCI-H2085; first compound 1.265 µM
  relative viability: 0.697
NCI-H2085; first compound 4 µM
  relative viability: 0.544
NCI-H1355; first compound 0.04 µM
  relative viability: 0.427
NCI-H1355; first compound 0.1265 µM
  relative viability: 0.431
NCI-H1355; first compound 0.4 µM
  relative viability: 0.435
NCI-H1355; first compound 1.265 µM
  relative viability: 0.413
NCI-H1355; first compound 4 µM
  relative viability: 0.34
LOU-NH91; first compound 0.04 µM
  relative viability: 0.712
LOU-NH91; first compound 0.1265 µM
  relative viability: 0.738
LOU-NH91; first compound 1.265 µM
  relative viability: 0.728
LOU-NH91; first compound 4 µM
  relative viability: 0.625
NCI-H838; first compound 0.04 µM
  relative viability: 0.428
NCI-H838; first compound 0.1265 µM
  relative viability: 0.384
NCI-H838; first compound 0.4 µM
  relative viability: 0.379
NCI-H838; first compound 1.265 µM
  relative viability: 0.404
NCI-H838; first compound 4 µM
  relative viability: 0.443
NCI-H358; first compound 0.04 µM
  relative viability: 0.811
NCI-H358; first compound 0.1265 µM
  relative viability: 0.678
NCI-H358; first compound 0.4 µM
  relative viability: 0.747
NCI-H358; first compound 1.265 µM
  relative viability: 0.684
NCI-H358; first compound 4 µM
  relative viability: 0.698
NCI-H2023; first compound 0.04 µM
  relative viability: 0.376
NCI-H2023; first compound 0.1265 µM
  relative viability: 0.366
NCI-H2023; first compound 0.4 µM
  relative viability: 0.419
NCI-H2023; first compound 1.265 µM
  relative viability: 0.342
NCI-H2023; first compound 4 µM
  relative viability: 0.343
HCC-15; first compound 0.04 µM
  relative viability: 0.714
HCC-15; first compound 0.1265 µM
  relative viability: 0.724
HCC-15; first compound 0.4 µM
  relative viability: 0.535
HCC-15; first compound 1.265 µM
  relative viability: 0.582
HCC-15; first compound 4 µM
  relative viability: 0.523
HCC-366; first compound 0.04 µM
  relative viability: 1.18
HCC-366; first compound 0.1265 µM
  relative viability: 0.846
HCC-366; first compound 0.4 µM
  relative viability: 1.13
HCC-366; first compound 1.265 µM
  relative viability: 0.736
HCC-366; first compound 4 µM
  relative viability: 0.548
NCI-H441; first compound 0.04 µM
  relative viability: 0.581
NCI-H441; first compound 0.1265 µM
  relative viability: 0.504
NCI-H441; first compound 0.4 µM
  relative viability: 0.597
NCI-H441; first compound 1.265 µM
  relative viability: 0.658
NCI-H441; first compound 4 µM
  relative viability: 0.713
NCI-H460; first compound 0.04 µM
  relative viability: 0.713
NCI-H460; first compound 0.1265 µM
  relative viability: 0.703
NCI-H460; first compound 0.4 µM
  relative viability: 0.655
NCI-H460; first compound 1.265 µM
  relative viability: 0.65
NCI-H460; first compound 4 µM
  relative viability: 0.624
NCI-H1395; first compound 0.04 µM
  relative viability: 0.632
NCI-H1395; first compound 0.1265 µM
  relative viability: 0.634
NCI-H1395; first compound 0.4 µM
  relative viability: 0.597
NCI-H1395; first compound 1.265 µM
  relative viability: 0.651
NCI-H1395; first compound 4 µM
  relative viability: 0.604
HCC-44; first compound 0.04 µM
  relative viability: 0.524
HCC-44; first compound 0.1265 µM
  relative viability: 0.652
HCC-44; first compound 0.4 µM
  relative viability: 0.438
HCC-44; first compound 1.265 µM
  relative viability: 0.439
HCC-44; first compound 4 µM
  relative viability: 0.355
NCI-H1734; first compound 0.04 µM
  relative viability: 0.675
NCI-H1734; first compound 0.1265 µM
  relative viability: 0.463
NCI-H1734; first compound 0.4 µM
  relative viability: 0.697
NCI-H1734; first compound 1.265 µM
  relative viability: 0.563
NCI-H1734; first compound 4 µM
  relative viability: 0.589
EKVX; first compound 0.04 µM
  relative viability: 0.743
EKVX; first compound 0.1265 µM
  relative viability: 0.663
EKVX; first compound 0.4 µM
  relative viability: 0.663
EKVX; first compound 4 µM
  relative viability: 0.643
NCI-H1755; first compound 0.04 µM
  relative viability: 0.82
NCI-H1755; first compound 0.1265 µM
  relative viability: 0.747
NCI-H1755; first compound 0.4 µM
  relative viability: 0.705
NCI-H1755; first compound 1.265 µM
  relative viability: 0.654
NCI-H1755; first compound 4 µM
  relative viability: 0.634
NCI-H1437; first compound 0.04 µM
  relative viability: 0.942
NCI-H1437; first compound 0.1265 µM
  relative viability: 0.949
NCI-H1437; first compound 0.4 µM
  relative viability: 0.937
NCI-H1437; first compound 1.265 µM
  relative viability: 0.792
NCI-H1437; first compound 4 µM
  relative viability: 0.879
